From ChEMBL document CHEMBL4118162, “Discovery of novel anti-tuberculosis agents with pyrrolo[1,2-a]quinoxaline-based scaffold” (Bioorg Med Chem Lett, 2018) come the findings set out here.

In brackets after ≈: the same amount, converted by molar mass.

Usually solubility stands for the concentration that dissolves in the medium under given conditions. High values mean a readily soluble substance, low ones a poorly soluble substance. For orientation: IC50 means the concentration that gives 50% inhibition. Low values mean higher potency, high ones lower potency. The MIC90 is the lowest concentration that inhibits either 90% of growth or 90% of the strains tested, depending on the study. A high value points to lower susceptibility. What is called Papp is a coefficient for how fast a substance crosses the barrier. A high value points to fast passage.

A short description of data set [1]: Solubility of the compound in water at 500 ug/mL by HPLC method. The format is physicochemical.
Data set [2] can be described thus: Cytotoxicity against human LO2 cells assessed as growth inhibition up to 20 uM after 48 hrs by MTT assay. The format is cell-based, L02. The following applies: read-out: GI. A general note: Tetrazolium assays rely on reduction of a dye to a coloured formazan, in cell work by metabolically active cells.
The subject of data set [3] is Mycobacterium tuberculosis. Nature of the data set: Antitubercular activity against Mycobacterium tuberculosis H37Ra assessed as as inhibition of bacterial growth at 10 ug/ml up to 7 days. The format is functional. The settings on record: 168 h, read-out: GI.
The target of data set [4] is T1, Enoyl-[acyl-carrier-protein] reductase [NADH] (Mycobacterium tuberculosis, UniProt P9WGR1).
T1 sequence (P9WGR1 whole entry): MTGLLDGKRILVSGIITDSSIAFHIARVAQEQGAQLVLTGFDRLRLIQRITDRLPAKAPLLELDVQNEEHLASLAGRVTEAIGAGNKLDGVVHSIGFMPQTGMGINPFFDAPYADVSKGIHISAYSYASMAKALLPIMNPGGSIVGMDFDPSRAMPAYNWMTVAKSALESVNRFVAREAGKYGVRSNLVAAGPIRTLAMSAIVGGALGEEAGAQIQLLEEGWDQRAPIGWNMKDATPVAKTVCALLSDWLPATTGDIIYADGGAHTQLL
Nature of the data set: Inhibition of Mycobacterium tuberculosis InhA using trans-2-decenoyl-N-acetylcysteamine as substrate preincubated for 1 hr followed by substrate addition measured every 30 secs for 5 mins.

The nature of data set [5]: Cytotoxicity against human MDA231 cells assessed as growth inhibition up to 20 uM after 48 hrs by MTT assay. The format is cell-based, MDA-MB-231. The settings on record: read-out: GI.
The target in data set [6] is T2, Enoyl-[acyl-carrier-protein] reductase [NADH] (Mycobacterium tuberculosis) (UniProt P9WGR1).
T2 sequence (whole entry): T1 sequence (P9WGR1 whole entry)
Nature of the data set: Inhibition of Mycobacterium tuberculosis InhA at 100 uM using trans-2-decenoyl-N-acetylcysteamine as substrate preincubated for 1 hr followed by substrate addition measured every 30 secs for 5 mins.

For data set [7], the system named is Mycobacterium tuberculosis. Nature of the data set: Antitubercular activity against Mycobacterium tuberculosis H37Ra up to 7 days. The format is functional. The settings on record: 168 h.
Data set [8] in a line: Cytotoxicity against human SKOV3 cells assessed as growth inhibition up to 20 uM after 48 hrs by MTT assay. The format is cell-based, SK-OV-3. The following applies: read-out: GI.
The nature of data set [9]: Effective permeability of the compound in PBS/EtOH at 50 ug/mL after 18 hrs by PAMPA-BBB assay. (In general: In PAMPA a lipid-coated filter parts donor from acceptor wells.)
The nature of data set [10]: Solubility of the compound in water at 180 uM by HPLC method. The format is physicochemical.

On to `Fc1ccccc1-c1cc(CNCc2ccccc2)c2cnc3cc(Br)ccc3n12`, for which the solubility in [1] is < 2.5 µg/mL. Also, the figures for the inhibition at 48 h in data set [2], in data set [5] and in data set [8] were 5.38%, 32.1% and 13.3%, respectively. The inhibition of growth at 10 µg/mL in [3] is ≥ 90%. This compound also returned a 50% inhibitory concentration (IC50) in data set [4] of 54 µM. Moreover, the inhibition in data set [6] worked out at 62%. In data set [7], this compound registered an MIC90 of 10 µg/mL (≈ 21.7 µM).

Regarding `Fc1ccccc1-c1cc(CNCc2c(F)cccc2Cl)c2cnc3cc(Cl)ccc3n12`, the solubility in [1] was < 2.5 µg/mL. For the same compound, the inhibition of growth at 10 µg/mL in data set [3] was ≥ 90%. For the same compound, the MIC90 in data set [7] was > 50 µg/mL.

`CCCNCc1cc(-c2ccccc2F)n2c1cnc1cc(Cl)ccc12` gave a solubility in data set [1] of 17.5 µg/mL (≈ 47.6 µM). Further, the inhibition at 48 h in [2] was 73.7%; in [5], 74.5%; in [8] it was 77%. For the same compound, the inhibition of growth at 10 µg/mL in [3] was ≥ 90%. Also, the inhibition in [6] came to 24.8%. In data set [7], the MIC90 was found to be 10 µg/mL (≈ 27.2 µM).

Consider `CC(C)NCc1cc(-c2ccccc2F)n2c1cnc1cc(Cl)ccc12`, for which the solubility in data set [1] was determined as 33.2 µg/mL (≈ 90.1 µM). Moreover, the inhibition at 48 h in [2] was 76.4%; in data set [5], 71.7%; in data set [8] it was 76.4%. Moreover, the inhibition of growth at 10 µg/mL in [3] was ≥ 90%. Besides, in data set [6], the inhibition came to 27.4%. The same compound yielded an MIC90 in [7] of 10 µg/mL (≈ 27.2 µM).

For the compound `CCCCNCc1cc(-c2ccccc2F)n2c1cnc1cc(Br)ccc12`, in [1], the concentration in solution (solubility) was 6.74 µg/mL (≈ 15.8 µM). Moreover, the inhibition at 48 h in data set [2] amounted to 68.7%; in data set [5], 70.8%; in data set [8], 66.3%. Further, the inhibition of growth at 10 µg/mL in [3] is ≥ 90%. For the same compound, the inhibition in [6] was determined as 50.2%. The MIC90 in data set [7] was determined as 10 µg/mL (≈ 23.5 µM).

Consider `CCCCNCc1cc(-c2ccccc2F)n2c1cnc1cc(F)ccc12`, for which the concentration in solution in data set [1] (solubility) was 8.61 µg/mL (≈ 23.6 µM). Further, the inhibition of growth at 10 µg/mL in [3] is ≥ 90%. Further, in data set [6], the inhibition came to 7.88%. In data set [7], the MIC90 is 25 µg/mL (≈ 68.4 µM).

`CCN(CC)Cc1cc(-c2ccccc2F)n2c1cnc1ccccc12`: in data set [3], the inhibition of growth at 10 µg/mL is ≥ 90%. For the same compound, the MIC90 in data set [7] was > 50 µg/mL.

`CCN(Cc1ccccc1)Cc1cc(-c2ccccc2F)n2c1cnc1cc(Cl)ccc12`: the solubility in data set [1] is < 2.5 µg/mL. In data set [3], the inhibition of growth at 10 µg/mL was ≥ 90%. The MIC90 in data set [7] is > 50 µg/mL.

Compound `Fc1ccccc1-c1cc(CNCc2ccccc2)c2cnc3ccccc3n12` came in with a solubility in data set [1] of 21.1 µg/mL (≈ 55.3 µM). Moreover, the inhibition of growth at 10 µg/mL in [3] is ≥ 90%. Besides, the inhibition in data set [6] amounted to 22.1%. For the same compound, in data set [7], the MIC90 fell in the range of 10 to 50 µg/mL (≈ 26.2 to 131 µM).

`Fc1ccccc1-c1cc(CN2CCOCC2)c2cnc3cc(Cl)ccc3n12`: the solubility in data set [1] was < 2.5 µg/mL. The inhibition of growth at 10 µg/mL in data set [3] was ≥ 90%. The MIC90 in data set [7] is > 50 µg/mL.

On to `Fc1ccccc1-c1cc(CNCc2ccccc2)c2cnc3cc(Cl)ccc3n12`, for which the solubility in [1] is < 2.5 µg/mL. The figures for the inhibition at 48 h in [2], in [5] and in data set [8] were 43.7%, 27.8% and 19.4%, respectively. Besides, in data set [3], the inhibition of growth at 10 µg/mL was ≥ 90%. For the same compound, in data set [6], the inhibition worked out at 37%. This compound registered an MIC90 in [7] of 5 µg/mL (≈ 12 µM).

In data set [1], `Fc1ccccc1-c1cc(CNCc2c(F)cccc2Cl)c2cnc3ccccc3n12` returned a solubility of 20.8 µg/mL (≈ 48 µM). In data set [3], the inhibition of growth at 10 µg/mL was ≥ 90%. In addition, the MIC90 in data set [7] is > 50 µg/mL.

Turning to `Fc1ccccc1-c1cc(CNCCc2ccc(Br)cc2)c2cnc3cc(Cl)ccc3n12`, in [1], the solubility is < 2.5 µg/mL. The figures for the inhibition at 48 h in data set [2], in data set [5] and in data set [8] were 40.1%, 70.5% and 71.8%, respectively. Further, the inhibition of growth at 10 µg/mL in data set [3] was ≥ 90%. In data set [4], this compound displayed an IC50 of 48 µM. Also, the inhibition in data set [6] came out at 64.9%. This compound displayed an MIC90 in data set [7] of 5 µg/mL (≈ 9.83 µM).

`Fc1ccccc1-c1cc(CNCCc2ccc(Br)cc2)c2cnc3ccccc3n12`: in [1], the solubility was < 2.5 µg/mL. The inhibition at 48 h was 72.3% in [2], 76.1% in [5] and 69.3% in [8]. Also, the inhibition of growth at 10 µg/mL in data set [3] was ≥ 90%. Also, the inhibition in data set [6] came to 17.3%. The compound also returned an MIC90 in data set [7] of 5 µg/mL (≈ 10.5 µM).

As to `CC(C)NCc1cc(-c2ccccc2F)n2c1cnc1ccccc12`, the solubility in [1] amounted to 70.5 µg/mL (≈ 212 µM). Further, the inhibition of growth at 10 µg/mL in [3] was ≥ 90%. Also, the inhibition in data set [6] is 17.3%. This compound came in with an MIC90 in [7] of 10 to 50 µg/mL (≈ 30 to 150 µM).

In data set [1], `Fc1ccc2c(c1)ncc1c(CNCc3ccccc3)cc(-c3ccccc3F)n12` showed a solubility of 4.9 µg/mL (≈ 12.3 µM). Moreover, the inhibition at 48 h in [2] was 20.1%; in data set [5], -8.04%; in data set [8], -7.09%. The inhibition of growth at 10 µg/mL in data set [3] was ≥ 90%. The inhibition in [6] was 48.5%. In addition, in data set [7], the MIC90 was 10 µg/mL (≈ 25 µM).

As for `COc1ccc(CCNCc2cc(-c3ccccc3F)n3c2cnc2cc(Cl)ccc23)cc1OC`, the inhibition at 48 h was 53.5% in data set [2], 76.4% in data set [5] and 84.4% in [8]. In addition, the Papp at 18 h, 50 ug/mL in data set [9] was found to be 9.39 ×10⁻⁶ cm/s. The amount in solution in data set [10] (solubility at 180 µM) came to 90 µg/mL (≈ 184 µM). In data set [3], the inhibition of growth at 10 µg/mL is ≥ 90%. Moreover, in data set [6], the inhibition turned out to be 40.4%. For the same compound, in data set [7], the MIC90 is 5 µg/mL (≈ 10.2 µM).

For the compound `CCN(CC)Cc1cc(-c2ccccc2F)n2c1cnc1cc(Cl)ccc12`, in [3], the inhibition of growth at 10 µg/mL is ≥ 90%. The MIC90 in [7] lay in the range of 10 to 50 µg/mL (≈ 26.2 to 131 µM).

Consider `CCCCNCc1cc(-c2ccccc2F)n2c1cnc1cc(Cl)ccc12`, for which the concentration in solution in data set [1] (solubility) came to 20 µg/mL (≈ 52.3 µM). Further, the figures for the inhibition at 48 h in data set [2], in [5] and in data set [8] were 73.7%, 74.5% and 75.9%, respectively. The inhibition of growth at 10 µg/mL in data set [3] is ≥ 90%. The inhibition in [6] came out at 33.3%. In [7], this compound came in with an MIC90 of 10 µg/mL (≈ 26.2 µM).

In [1], `COc1ccc(CCNCc2cc(-c3ccccc3F)n3c2cnc2ccccc23)cc1OC` registered a solubility of 50.7 µg/mL (≈ 111 µM). Further, the inhibition of growth at 10 µg/mL in data set [3] is ≥ 90%. In addition, the inhibition in data set [6] came to 6.28%. The compound also gave an MIC90 in data set [7] of 10 to 50 µg/mL (≈ 22 to 110 µM).

In turn, `CCCNCc1cc(-c2ccccc2F)n2c1cnc1ccccc12` gave a solubility in data set [1] of 73.3 µg/mL (≈ 220 µM). The inhibition of growth at 10 µg/mL in [3] is ≥ 90%. In data set [6], the inhibition is 5.21%. For the same compound, the MIC90 in data set [7] was in the range of 10 to 50 µg/mL (≈ 30 to 150 µM).

For the compound `Fc1ccccc1-c1cc(CN2CCN(c3ccccc3C(F)(F)F)CC2)c2cnc3cc(Cl)ccc3n12`, the solubility in [1] was < 2.5 µg/mL. The inhibition of growth at 10 µg/mL in data set [3] was ≥ 90%. Moreover, in data set [7], the MIC90 was > 50 µg/mL.

`CCCCNCc1cc(-c2ccccc2F)n2c1cnc1ccccc12` showed a solubility in [1] of 120 µg/mL (≈ 346 µM). Further, in data set [3], the inhibition of growth at 10 µg/mL was ≥ 90%. In addition, the inhibition in data set [6] was determined as 14.4%. The MIC90 in data set [7] was 10 to 50 µg/mL (≈ 28.8 to 144 µM).
